Tested on: 945468-187-T-J3-PDC spheroids with HUVEC/MSC, viability
Experiment: Anticancer human tumor 945468-187-T-J3-PDC patient-derived rectal carcinoma cell line growth inhibition [PI3K]
Settings: for IC50: curve of first compound; for viability, T/C: stronger effect = lower value
How it was run: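 Tumor cells were combined with HUVEC and MSCs into spheroids, then dosed with PI3K-inhibitor combinations over half-log ranges capped near clinical Cmax or 10 microM.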

[1] = second compound 0.0316 µM, first compound 0.0316 µM
[2] = second compound 0.0316 µM, first compound 0.1 µM
[3] = second compound 0.1 µM, first compound 0.0316 µM
[4] = second compound 0.1 µM, first compound 0.1 µM
[5] = second compound 0.316 µM, first compound 0.0316 µM
[6] = second compound 0.316 µM, first compound 0.1 µM
[7] = second compound 1 µM, first compound 0.0316 µM
[8] = second compound 1 µM, first compound 0.1 µM
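Further: spheroids exposed to agents for 7 days before viability read.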
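Wherever viability, T/C is given: 100% = DMSO vehicle control viability.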

With `Cn1ncnc1[C@H]1c2n[nH]c(=O)c3cc(F)cc(c23)N[C@@H]1c1ccc(F)cc1` + Cc1nc(NC(=O)N2CCCC2C(N)=O)sc1-c1ccnc(C(C)(C)C(F)(F)F)c1 the IC50 (second compound 0.0316 µM) was > 100 nM, the IC50 (second compound 0.1 µM) was > 100 nM and the IC50 (second compound 0.316 µM) was > 100 nM. The IC50 (second compound 1 µM) was > 100 nM, the IC50 (second compound 3.16 µM) was > 100 nM and the IC50 (second compound 10 µM) was > 100 nM. The viability, T/C (second compound 0.0316 µM, first compound 0.000316 µM) was 96.6%, the viability, T/C (second compound 0.0316 µM, first compound 0.001 µM) was 102% and the viability, T/C (second compound 0.0316 µM, first compound 0.00316 µM) was 101%. It also gave a viability, T/C (second compound 0.0316 µM, first compound 0.01 µM) of 116%, a viability, T/C [1] of 116% and a viability, T/C [2] of 114%. It also gave a viability, T/C (second compound 0.1 µM, first compound 0.000316 µM) of 105%, a viability, T/C (second compound 0.1 µM, first compound 0.001 µM) of 105% and a viability, T/C (second compound 0.1 µM, first compound 0.00316 µM) of 91.8%. For the same compound, the viability, T/C (second compound 0.1 µM, first compound 0.01 µM) was 106%, the viability, T/C [3] was 120% and the viability, T/C [4] was 100%. For the same compound, the viability, T/C (second compound 0.316 µM, first compound 0.000316 µM) was 111%, the viability, T/C (second compound 0.316 µM, first compound 0.001 µM) was 103% and the viability, T/C (second compound 0.316 µM, first compound 0.00316 µM) was 92.6%. For the same compound, the viability, T/C (second compound 0.316 µM, first compound 0.01 µM) was 118%, the viability, T/C [5] was 115% and the viability, T/C [6] was 105%. The viability, T/C (second compound 1 µM, first compound 0.000316 µM) was 118%, the viability, T/C (second compound 1 µM, first compound 0.001 µM) was 109% and the viability, T/C (second compound 1 µM, first compound 0.00316 µM) was 89.9%. It also gave a viability, T/C (second compound 1 µM, first compound 0.01 µM) of 115%, a viability, T/C [7] of 99.8% and a viability, T/C [8] of 97.4%. For the same compound, the viability, T/C (second compound 3.16 µM, first compound 0.000316 µM) was 116%, the viability, T/C (second compound 3.16 µM, first compound 0.001 µM) was 103% and the viability, T/C (second compound 3.16 µM, first compound 0.00316 µM) was 98.7%. It also gave a viability, T/C (second compound 3.16 µM, first compound 0.01 µM) of 109%, a viability, T/C (second compound 3.16 µM, first compound 0.0316 µM) of 107% and a viability, T/C (second compound 3.16 µM, first compound 0.1 µM) of 103%. For the same compound, the viability, T/C (second compound 10 µM, first compound 0.000316 µM) was 58.2%, the viability, T/C (second compound 10 µM, first compound 0.001 µM) was 68% and the viability, T/C (second compound 10 µM, first compound 0.00316 µM) was 61.3%. The viability, T/C (second compound 10 µM, first compound 0.01 µM) was 53.3%, the viability, T/C (second compound 10 µM, first compound 0.0316 µM) was 63.7% and the viability, T/C (second compound 10 µM, first compound 0.1 µM) was 51.3%.
In the case of `Cn1nccc1Nc1nccc(-c2ccn(C(CO)c3ccc(Cl)c(F)c3)c(=O)c2)n1` (centres undefined) + COc1c(OCCCN2CCOCC2)ccc2c3n(c(=NC(=O)c4cnc(N)nc4)nc12)CCN3, the IC50 (second compound 0.00316 µM) is reported as > 10000 nM, the IC50 (second compound 0.01 µM) is reported as > 10000 nM and the IC50 (second compound 0.0316 µM) is reported as > 10000 nM. The IC50 (second compound 0.1 µM) was < 31.6 nM, the IC50 (second compound 0.316 µM) was < 31.6 nM and the IC50 (second compound 1 µM) was < 31.6 nM. It also gave a viability, T/C (second compound 0.00316 µM, first compound 0.0316 µM) of 95.1%, a viability, T/C (second compound 0.00316 µM, first compound 0.1 µM) of 93% and a viability, T/C (second compound 0.00316 µM, first compound 0.316 µM) of 102%. For the same compound, the viability, T/C (second compound 0.00316 µM, first compound 1 µM) was 98.9%, the viability, T/C (second compound 0.00316 µM, first compound 3.16 µM) was 109% and the viability, T/C (second compound 0.00316 µM, first compound 10 µM) was 111%. For the same compound, the viability, T/C (second compound 0.01 µM, first compound 0.0316 µM) was 97.5%, the viability, T/C (second compound 0.01 µM, first compound 0.1 µM) was 87.7% and the viability, T/C (second compound 0.01 µM, first compound 0.316 µM) was 119%. For the same compound, the viability, T/C (second compound 0.01 µM, first compound 1 µM) was 97.5%, the viability, T/C (second compound 0.01 µM, first compound 3.16 µM) was 123% and the viability, T/C (second compound 0.01 µM, first compound 10 µM) was 104%. It also gave a viability, T/C [1] of 97.7%, a viability, T/C [2] of 85% and a viability, T/C (second compound 0.0316 µM, first compound 0.316 µM) of 93.5%. The viability, T/C (second compound 0.0316 µM, first compound 1 µM) was 85.6%, the viability, T/C (second compound 0.0316 µM, first compound 3.16 µM) was 83.4% and the viability, T/C (second compound 0.0316 µM, first compound 10 µM) was 66%. It also gave a viability, T/C [3] of 49.7%, a viability, T/C [4] of 44.1% and a viability, T/C (second compound 0.1 µM, first compound 0.316 µM) of 55.6%. The viability, T/C (second compound 0.1 µM, first compound 1 µM) was 43.9%, the viability, T/C (second compound 0.1 µM, first compound 3.16 µM) was 40.5% and the viability, T/C (second compound 0.1 µM, first compound 10 µM) was 42.8%. The viability, T/C [5] was 20.9%, the viability, T/C [6] was 18.9% and the viability, T/C (second compound 0.316 µM, first compound 0.316 µM) was 18.2%. For the same compound, the viability, T/C (second compound 0.316 µM, first compound 1 µM) was 19.4%, the viability, T/C (second compound 0.316 µM, first compound 3.16 µM) was 15.3% and the viability, T/C (second compound 0.316 µM, first compound 10 µM) was 14.5%. The viability, T/C [7] was 14.9%, the viability, T/C [8] was 15.5% and the viability, T/C (second compound 1 µM, first compound 0.316 µM) was 11.3%. It also gave a viability, T/C (second compound 1 µM, first compound 1 µM) of 9.48%, a viability, T/C (second compound 1 µM, first compound 3.16 µM) of 8.78% and a viability, T/C (second compound 1 µM, first compound 10 µM) of 7.89%.
